Source: ChEMBL document CHEMBL3608224, “Total synthesis of cordatanine, structural reassignment of drymaritin, and anti-inflammatory activity of synthetic precursors” (Bioorg Med Chem Lett, 2015)
≈ marks a conversion by molar mass, not a printed value.

Key:
[1] = Antiinflammatory activity in FMLP/CB-induced human neutrophils assessed as inhibition of superoxide anion generation; type: functional, cell-based; conditions: Neutrophil
[2] = Antiinflammatory activity in FMLP/CB-induced human neutrophils assessed as inhibition of superoxide anion generation relative to control; type: functional, Neutrophil
[3] = Antiinflammatory activity in FMLP/CB-induced human neutrophils assessed as inhibition of elastase release; type: functional, cell-based; conditions: Neutrophil
[4] = Antiinflammatory activity in FMLP/CB-induced human neutrophils assessed as inhibition of elastase release relative to control; type: functional, Neutrophil

Row | SMILES | IC50 [1] | inhibition (INH) [2] | IC50 [3] | inhibition (INH) [4]
1 | CCOC(=O)c1nccc2c1[nH]c1ccccc12 | 4.87 µg/mL (≈ 20.3 µM) | 93.92% | 6.29 µg/mL (≈ 26.2 µM) | 70.75%
2 | COc1cc(=O)n2c3ccccc3c3ccnc1c32 | > 10 µg/mL | 29.5% | > 10 µg/mL | 8.2%
3 | CCOC(=O)CC(=O)c1nccc2c1[nH]c1ccccc12 | > 10 µg/mL | 10.48% | > 10 µg/mL | 3.06%
